One test deals with Target C. The experiment in a line: RT-qPCR canonical junction panel assay, Target C mRNA. In kind it is cell-based. Conditions: Table 4, read-out: Target C IC50 (decrease in CJ mRNA levels). In a few lines:
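A673 or K562 cells treated with compound; CJ mRNA quantified by junction-spanning RT-qPCR probe after cDNA synthesis, normalised to GAPDH, GUSB or PPIA and DMSO (2^−ΔΔCt), scaled to set ΔCt assay window; IC50 from 4-parameter fit of CJ decrease.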

A further test deals with MYB. The experiment in a line: HiBiT protein abundance assay, MYB (K562 HiBiT knock-in). Particulars: HiBiT knock-in K562 cells, 24 hours, top dose 10 μM. In kind it is cell-based, human. A digest of the protocol:
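K562 HiBiT knock-in, 24 h, 37 °C, top 10 μM final, 3-fold ×10, DMSO ≤0.25%. Lytic HiBiT luminescence; PC = parental K562, NC = DMSO; 4PL IC50.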

Structures can show the parent of a compound that is named as a salt.

One may read the IC50 as the midpoint of a concentration-inhibition curve.

Regarding `Cc1nc2c(C)c(O)c(-c3ccc4cc(N5CC[C@H](NC6CC6)C5)ncc4n3)cc2o1` [Compound 441, 6-{6-[(3S)-3-(cyclopropylamino)pyrrolidin-1-yl]-1,7-naphthyridin-2-yl}-2,4-dimethyl-1,3-benzoxazol-5-ol], the results for the IC50 in the test on Target C and in the test with MYB were 100 to 1000 nM and 1000 to 10000 nM, respectively.
The like results for `Cn1cc2cc(-c3ccc4nc(C5CCNC6(CC6)C5)ncc4n3)c(O)cc2n1` (centres unmarked) [Compound 448, 5-(2-{4-azaspiro[2.5]octan-7-yl}pyrido[3,2-d]pyrimidin-6-yl)-2-methylindazol-6-ol] were, in that order, 1000 to 10000 nM and 100 to 1000 nM.
Consider `Cn1cc2cc(-c3ccc4cc(N5CCC(NC(C)(C)C)C5)ncc4n3)c(O)cc2n1` (centres unmarked) [Compound 449, 5-{6-[3-(tert-butylamino)pyrrolidin-1-yl]-1,7-naphthyridin-2-yl}-2-methylindazol-6-ol], for which the results for the IC50 in the test on Target C and with MYB were 1000 to 10000 nM and 100 to 1000 nM, respectively.
For `Cc1nc2cc(O)c(-c3ccc4cc(N5CC[C@H](NC(C)(C)C)C5)ncc4n3)cc2o1` [Compound 450] the same measures were 1000 to 10000 nM and 1000 to 10000 nM.
For `Cc1c(O)c(-c2cc(Cl)c3cc(N4CCNCC4)cc(C)c3n2)cc2cn(C)nc12` [Compound 482, 5-[4-chloro-8-methyl-6-(piperazin-1-yl)577yrrolidi-2-yl]-2,7-dimethylindazol-6-ol hydrochloride] the same measures were 1000 to 10000 nM and under 100 nM.
Turning to `Cc1cc2nc(-c3cc4cn(C)nc4c(C)c3O)cc(Cl)c2cc1N1CCNCC1` [Compound 484, 5-[4-chloro-7-methyl-6-(piperazin-1-yl)586yrrolidi-2-yl]-2,7-dimethylindazol-6-ol], the IC50 was 1000 to 10000 nM in the test on Target C and 100 to 1000 nM in the test on MYB.
For `CNC1CCN(c2cc3c(Cl)cc(-c4cc5cn(C)nc5c(C)c4O)nc3cc2C)C1` (centres unmarked) [Compound 486, 5-{4-chloro-7-methyl-6-[3-(methylamino)pyrrolidin-1-yl]quinolin-2-yl}-2,7-dimethylindazol-6-ol] the same measures were 1000 to 10000 nM and 100 to 1000 nM.

The values are drawn from patent US20250092065A1, “2-(INDAZOL-5-YL)-6-(PIPERIDIN-4-YL)-1,7-NAPHTHYRIDINE DERIVATIVES AND RELATED COMPOUNDS AS MODULATORS FOR SPLICING NUCLEIC ACIDS AND FOR THE TREATMENT OF PROLIFERATIVE DISEASES” (REMIX THERAPEUTICS INC., priority 2022, published 2025).
